From US6143724A, “2-fluorofucosyl-N-aroylglucosamine derivatives, intermediates, therefor, and processes for producing these” (Daikin Industries, Ltd., priority 1997, dated 2000)
“Also recorded” adds a separate entry of the source.

What was measured:
[1] = test system: α-fucosidase; experiment: Evaluation of metabolic stability of sialyl Lewis X derivatives to α-fucosidase (TLC spot densitometry); format: in vitro ADME; conditions: for Spot Area: 28° C.
Procedure: The metabolic stability of various sialyl Lewis X derivatives to α-fucosidase was assayed. The various sialyl Lewis X derivatives which were used in Example [(2F-Fuc-t-Bu) SLcXOSE], Comparative Example 1 (SLeX Ganglioside), and Comparative Example 2 [(2F-Fuc) SLeX Ganglioside] are shown in the following structural formulas. Herein, the compound used in the present Example is the compound represented by said structural formula (β) obtained in said Example 11. [drawing 48] After […] of each sialyl Lewis X derivative was dissolved in 0.1 mL of dist. water, 0.1 mL of ammonium sulfate suspension of α-fucosidase (made by Wako Chemicals: 2 units or more/mg protein) was added to this solution at 28° C., then the reaction solution was charged on a silica gel TLC plate 5715 (made by Merck Company) at every reaction time course. After developing up to 2 cm using developing solvents (n-butanol:acetic acid:water=8:5:4), this was soaked in an aqueous solution of molybdenum phosphate/phosphoric acid/sulfuric acid mixture, and heated to color. The Rf values (moving ratio) on the TLC plate of products decomposed by α-fucosidase and each sialyl Lewis X derivative (substrate) were as follows.
Further, it was confirmed from the mass spectrum that each sialyl Lewis X derivative is decomposed by α-fucosidase, and the corresponding derivatives from which the fucose moiety was removed were produced as respective decomposed products. Further, as shown in following Table 1, the residual rates of the individual sialyl Lewis X derivatives were calculated from each spot area (hereinafter, sometimes referred to merely as the area) after each reaction time course as follows. Herein, each area was measured using a densitometer (software: VILBER LOURMAT BIOID V 6.31a): Residual rate of sialyl Lewis X derivative=(substrate area)/(total area of substrate area plus decomposed product area).

[2] = test system: selectins; conditions: cited from earlier work
[3] = test system: acute inflammation of the lung induced by cobra toxin; conditions: rats, Mulligan et al., Nature 364, 149 (1993); cited from earlier work
[4] = biological target: T1, P selectin (Homo sapiens, UniProt P16109); conditions: H. Kondo et al., J. Med. Chem. 39, 1339 (1996); cited from earlier work
T1 sequence (P16109 42-830): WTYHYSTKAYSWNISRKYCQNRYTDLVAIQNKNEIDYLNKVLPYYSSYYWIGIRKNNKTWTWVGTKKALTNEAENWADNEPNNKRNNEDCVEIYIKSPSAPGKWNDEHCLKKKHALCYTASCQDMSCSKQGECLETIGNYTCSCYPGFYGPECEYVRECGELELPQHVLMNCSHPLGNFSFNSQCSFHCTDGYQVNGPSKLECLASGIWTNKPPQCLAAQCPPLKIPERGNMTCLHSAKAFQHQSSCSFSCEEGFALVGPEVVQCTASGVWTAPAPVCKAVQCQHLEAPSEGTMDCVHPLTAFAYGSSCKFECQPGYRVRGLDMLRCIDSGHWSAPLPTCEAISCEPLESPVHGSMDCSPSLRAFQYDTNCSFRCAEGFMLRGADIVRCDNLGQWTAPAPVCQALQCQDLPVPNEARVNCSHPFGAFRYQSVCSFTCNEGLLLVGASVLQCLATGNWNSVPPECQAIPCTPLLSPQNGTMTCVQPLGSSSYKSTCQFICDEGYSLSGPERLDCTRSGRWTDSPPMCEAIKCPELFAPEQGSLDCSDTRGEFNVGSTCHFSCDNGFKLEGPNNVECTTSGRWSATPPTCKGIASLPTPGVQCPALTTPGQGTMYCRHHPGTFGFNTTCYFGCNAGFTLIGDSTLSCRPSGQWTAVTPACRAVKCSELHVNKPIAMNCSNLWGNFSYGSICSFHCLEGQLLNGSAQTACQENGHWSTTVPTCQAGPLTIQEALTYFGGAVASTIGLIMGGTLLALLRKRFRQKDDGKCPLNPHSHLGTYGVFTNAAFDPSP

[5] = time course 0 min after addition of α-fucosidase
[6] = time course 0.5 min after addition of α-fucosidase, * = color on the TLC completely disappeared
[7] = time course 1.0 min after addition of α-fucosidase

| stability against / resistance to decomposition by α-fucosidase (in words, from FIG. 1) [1] | Spot Area [1, 5] [cm^2] | Spot Area [1, 6] [cm^2] | Structure (SMILES) | Spot Area [1, 7] [cm^2] | other results |
| --- | --- | --- | --- | --- | --- |
| rapid decomposition | 1.0 | 0.0 | CCCCCCCCCCCCC/C=C/[C@@H](O)[C@H](CO[C@@H]1O[C@H](CO)[C@@H](O[C@@H]2O[C@H](CO)[C@H](O)[C@H](O[C@@H]3O[C@H](CO)[C@@H](O[C@@H]4O[C@H](CO)[C@H](O)[C@H](O[C@]5(C(=O)O)C[C@H](O)[C@@H](NC(C)=O)[C@H]([C@H](O)[C@H](O)CO)O5)[C@H]4O)[C@H](O[C@@H]4O[C@@H](C)[C@@H](O)[C@@H](O)[C@@H]4O)[C@H]3NC(C)=O)[C@H]2O)[C@H](O)[C@H]1O)NC(=O)CCCCCCCCCCCCCCCCC [Comparative Example 1] |  |  |
| weak resistance to decomposition | 1.0 | 0.36 | CCCCCCCCCCCCC/C=C/[C@@H](O)[C@H](CO[C@@H]1O[C@H](CO)[C@@H](O[C@@H]2O[C@H](CO)[C@H](O)[C@H](O[C@@H]3O[C@H](CO)[C@@H](O[C@@H]4O[C@H](CO)[C@H](O)[C@H](O[C@]5(C(=O)O)C[C@H](O)[C@@H](NC(C)=O)[C@H]([C@H](O)[C@H](O)CO)O5)[C@H]4O)[C@H](O[C@@H]4O[C@@H](C)[C@@H](O)[C@@H](O)[C@@H]4F)[C@H]3NC(C)=O)[C@H]2O)[C@H](O)[C@H]1O)NC(=O)CCCCCCCCCCCCCCCCCCCCCCC [Comparative Example 2] | 0.30 |  |
|  |  |  | CCCCCCCCCCCCCCC(CCCCCCCCCCCCCC)CO[C@@H]1O[C@H](CO)[C@@H](O[C@@H]2O[C@H](CO)[C@H](O)[C@H](OS(=O)(=O)O)[C@H]2O)[C@H](O[C@@H]2O[C@@H](C)[C@@H](O)[C@@H](O)[C@@H]2O)[C@H]1NC(C)=O [GSC-150] |  | selectin adhesion-inhibitory activity (in words) [2]: powerful selectin blocker |
|  |  |  | CC(=O)NC1C(O)CC(OC2C(O)C(CO)OC(OC3C(CO)OC(O)C(NC(C)=O)C3OC3OC(C)C(O)C(O)C3O)C2O)(C(=O)O)OC1C(O)C(O)CO (centres unmarked) [structural formula (III)] |  | acute inflammation of the lung [3]: reduced |
|  |  |  | CC(=O)NC1COC(CO)C(OC2OC(CO)C(O)C(OC3(C(=O)O)CC(O)C(NC(C)=O)C(C(O)C(O)CO)O3)C2O)C1OC1OC(C)C(O)C(O)C1O (centres unmarked) [structural formula (V)] |  | adhesion-inhibitory activity to P selectin relative to the sialyl Lewis X glycoside of Structural Formula (III) [4]: 20 times |

| Structure (SMILES) | stability against / resistance to decomposition by α-fucosidase (in words, from FIG. 1) [1] | Spot Area [1, 5] [cm^2] | Spot Area [1, 6] [cm^2] | Spot Area [1, 7] [cm^2] | other results |
| --- | --- | --- | --- | --- | --- |
| CC(=O)NC1C(O)CC(OC2C(O)C(CO)OC(OC3C(CO)OC(OC4C(O)C(CO)OC(OC5C(CO)OC(OCC[Si](C)(C)C)C(O)C5O)C4O)C(NC(=O)c4ccc(C(C)(C)C)cc4)C3OC3OC(C)C(O)C(O)C3F)C2O)(C(=O)O)OC1C(O)C(O)CO [Example, 2-(trimethylsilyl)ethyl O-(5-acetamide-3,5-dideoxy-D-glycero-α-D-galacto-2-nunolopyranosylonic acid)-(2→3)-O-β-D-galactopyranosyl-(1→4)-O-[(2-deoxy-2-fluoro-α-L-fucopyranosyl)-(1→3)]-O-[(2-deoxy-2-(4-t-butylbenzamide)-β-D-glucopyranosyl)]-(1→3)-(O-β-D-galactopyranosyl)-(1→4)-β-D-glucopyranoside] | excellent in stability against α-fucosidase; also recorded: strongly resistant to decomposition reaction | 1.0 |  | 0.73 | Spot Area ([1]; time course 2.0 min after addition of α-fucosidase): 0.44 cm^2 |
